From ChEMBL document CHEMBL1201862, “PubChem BioAssay data set” (2004)
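Tested at 5 concentrations; 48 h exposure; 96-well plates; endpoints linearly interpolated, else capped at highest concentration. GI50: concentration for 50% inhibition of growth.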 Calls of active or inactive are those of the source. Cut-off read from the data, not from the text of the source: active = GI50 up to about 1.1 µM and inactive = higher.

Tests used:
Test in all cases: NCI tumour cell line growth inhibition, 48 h
A498 = system: A498
ACHN = system: ACHN
CCRF-CEM = system: CCRF-CEM
EKVX = system: EKVX
HCT-116 = system: HCT-116
HCT-15 = system: HCT-15
HL-60 = system: HL-60
HT-29 = system: HT-29
IGROV-1 = system: IGROV-1
KM12 = system: KM12
LOX IMVI = system: LOX IMVI
NCI-H522 = system: NCI-H522
OVCAR-3 = system: OVCAR-3
OVCAR-5 = system: OVCAR-5
PC-3 = system: PC-3
RPMI-8226 = system: RPMI-8226
RXF 393 = system: RXF 393
SK-MEL-2 = system: SK-MEL-2
SNB-75 = system: SNB-75
UACC-257 = system: UACC-257

Measured: GI50

CC(C)(C)c1cc(/C=C(\C#N)C(=O)NCCO)cc(C(C)(C)C)c1O
20.7 µM: HCT-15
inactive: A498 20.3 µM | ACHN 27.2 µM | CCRF-CEM 15.1 µM | EKVX 24.5 µM | HCT-116 16.9 µM | HL-60 15.7 µM | HT-29 21 µM | IGROV-1 40.7 µM | KM12 21.5 µM | LOX IMVI 25.1 µM | NCI-H522 16.5 µM | OVCAR-3 14.6 µM | OVCAR-5 24.1 µM | PC-3 18.2 µM | RPMI-8226 12.3 µM | RXF 393 27.4 µM | SK-MEL-2 17.6 µM | SNB-75 31.8 µM | UACC-257 17.5 µM

COc1cc(/C=N/N=C2NCCCN2)ccc1O
> 100 µM: HCT-15
inactive: A498 > 100 µM | ACHN > 100 µM | CCRF-CEM > 100 µM | EKVX > 100 µM | HCT-116 > 100 µM | HL-60 > 100 µM | HT-29 > 100 µM | IGROV-1 > 100 µM | KM12 > 100 µM | LOX IMVI > 100 µM | NCI-H522 > 100 µM | OVCAR-3 > 100 µM | OVCAR-5 > 100 µM | PC-3 > 100 µM | RPMI-8226 > 100 µM | RXF 393 > 100 µM | SK-MEL-2 > 100 µM | SNB-75 30.3 µM | UACC-257 > 100 µM

[C-]#[N+]C(=C\c1ccc(O)cc1)/C(=C/c1ccc(O)cc1)[N+]#[C-] [XANTOCILLIN]
active: CCRF-CEM 0.76 µM | HCT-116 0.6 µM | HL-60 1.07 µM
1.45 µM: HCT-15
inactive: A498 3.06 µM | ACHN 2.03 µM | EKVX 2.06 µM | HT-29 10.9 µM | IGROV-1 2.13 µM | KM12 2.16 µM | LOX IMVI 1.64 µM | NCI-H522 3.14 µM | OVCAR-3 2.33 µM | OVCAR-5 4.94 µM | PC-3 3.65 µM | RPMI-8226 4.39 µM | RXF 393 1.85 µM | SK-MEL-2 2.07 µM | SNB-75 1.12 µM | UACC-257 2.53 µM

CSc1[nH]nc(N)c1C(=O)Nc1ccc(Cl)cc1
46.2 µM: HCT-15
inactive: A498 73.3 µM | CCRF-CEM 27 µM | EKVX > 100 µM | HCT-116 23.6 µM | HL-60 34.8 µM | HT-29 41.5 µM | IGROV-1 98.9 µM | KM12 55.6 µM | LOX IMVI 76.9 µM | NCI-H522 27 µM | OVCAR-3 > 100 µM | OVCAR-5 > 100 µM | PC-3 55.5 µM | RPMI-8226 37.7 µM | RXF 393 22.9 µM | SK-MEL-2 > 100 µM | SNB-75 75.5 µM | UACC-257 > 100 µM

CC(CC(=O)O)C(C(=O)O)C(=O)O (stereo unspecified)
inactive: A498 > 100 µM | ACHN > 100 µM | CCRF-CEM > 100 µM | EKVX > 100 µM | HCT-116 > 100 µM | HL-60 > 100 µM | HT-29 > 100 µM | IGROV-1 > 100 µM | KM12 > 100 µM | LOX IMVI > 100 µM | NCI-H522 > 100 µM | OVCAR-3 > 100 µM | OVCAR-5 > 100 µM | PC-3 > 100 µM | RPMI-8226 > 100 µM | RXF 393 > 100 µM | SK-MEL-2 > 100 µM | SNB-75 > 100 µM | UACC-257 > 100 µM
> 100 µM: HCT-15

Oc1ncc(N(CCCl)CCCl)c(O)n1 [URACIL MUSTARD]
inactive: A498 69.5 µM | ACHN 2.67 µM | CCRF-CEM 2.1 µM | EKVX 85.7 µM | HCT-116 49 µM | HL-60 1.43 µM | HT-29 69.8 µM | IGROV-1 81.3 µM | KM12 89.3 µM | LOX IMVI 14.1 µM | NCI-H522 14.3 µM | OVCAR-3 74.6 µM | OVCAR-5 39.3 µM | PC-3 57.3 µM | RPMI-8226 41.6 µM | RXF 393 20.7 µM | SK-MEL-2 > 97.3 µM | SNB-75 26.3 µM | UACC-257 51.1 µM
50.2 µM: HCT-15

CC(=O)CC(=O)Nc1ccc2ccccc2c1
95.3 µM: HCT-15
inactive: A498 > 100 µM | ACHN > 100 µM | CCRF-CEM 36.8 µM | EKVX > 100 µM | HCT-116 > 100 µM | HL-60 > 100 µM | HT-29 > 100 µM | IGROV-1 > 100 µM | KM12 > 100 µM | LOX IMVI > 100 µM | NCI-H522 47.2 µM | OVCAR-3 34.6 µM | OVCAR-5 > 100 µM | PC-3 > 100 µM | RPMI-8226 45.6 µM | RXF 393 > 100 µM | SK-MEL-2 > 100 µM | SNB-75 > 100 µM | UACC-257 51.9 µM

CCOC(=O)c1ccc(C(=O)/C(C#N)=C2\CCCN2C)[nH]1
> 100 µM: HCT-15
inactive: A498 > 100 µM | ACHN > 100 µM | CCRF-CEM > 100 µM | EKVX > 100 µM | HCT-116 > 100 µM | HL-60 > 100 µM | HT-29 > 100 µM | IGROV-1 > 100 µM | KM12 > 100 µM | LOX IMVI > 100 µM | NCI-H522 > 100 µM | OVCAR-3 > 100 µM | OVCAR-5 > 100 µM | PC-3 > 100 µM | RPMI-8226 > 100 µM | RXF 393 > 100 µM | SK-MEL-2 > 100 µM | SNB-75 > 100 µM | UACC-257 > 100 µM

CCO/N=C(/CC)c1ccc(Br)s1
> 100 µM: HCT-15
inactive: A498 > 100 µM | ACHN > 100 µM | CCRF-CEM > 100 µM | EKVX > 100 µM | HCT-116 > 100 µM | HL-60 33 µM | HT-29 > 100 µM | IGROV-1 > 100 µM | KM12 > 100 µM | LOX IMVI 80.5 µM | NCI-H522 > 100 µM | OVCAR-3 > 100 µM | OVCAR-5 > 100 µM | PC-3 > 100 µM | RXF 393 > 100 µM | SK-MEL-2 > 100 µM | SNB-75 > 100 µM | UACC-257 > 100 µM

CN(C)CCNC(=O)c1cc(-c2nccn2C)nc2ccccc12
66.1 µM: HCT-15
inactive: A498 > 100 µM | ACHN 58.3 µM | CCRF-CEM > 100 µM | EKVX > 100 µM | HCT-116 > 100 µM | HL-60 > 100 µM | HT-29 > 100 µM | IGROV-1 > 100 µM | KM12 > 100 µM | LOX IMVI > 100 µM | NCI-H522 > 100 µM | OVCAR-5 > 100 µM | PC-3 > 100 µM | RPMI-8226 > 100 µM | RXF 393 45.4 µM | SK-MEL-2 > 100 µM | SNB-75 > 100 µM | UACC-257 > 100 µM

CC[C@]1(c2ccc3c(c2)OCO3)C=[N+]([O-])O[C@H](OC2CCCC2(c2ccccc2)c2ccccc2)[C@@H]1OC(C)=O (stereo partly specified)
2.26 µM: HCT-15
inactive: A498 1.27 µM | ACHN 2.81 µM | CCRF-CEM 2.86 µM | EKVX 2.42 µM | HCT-116 1.78 µM | HL-60 2.87 µM | HT-29 1.68 µM | IGROV-1 1.94 µM | KM12 1.77 µM | LOX IMVI 2.09 µM | NCI-H522 1.77 µM | OVCAR-3 1.81 µM | OVCAR-5 3.83 µM | PC-3 3.24 µM | RXF 393 1.27 µM | SK-MEL-2 2.38 µM | SNB-75 2.16 µM | UACC-257 2.58 µM
